TGI data for seven compounds are collected here from PubChem BioAssay (NCI).

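A five-concentration, 48-hour dose response in 96-well plates underlies each endpoint, interpolated linearly between surrounding concentrations. TGI: concentration producing complete growth inhibition.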 Where a SMILES comes first, the peptide text is derived from it. The star is where a group is joined. OBn = c1ccc(CO*)cc1

Some test systems named below: SNB-19 CNS; UACC-62 melanoma; HCT-15 colon; BT-549 breast; NCI/ADR-RES ovarian; SF-268 CNS; HT29 colon; SK-MEL-28 melanoma; LOX IMVI melanoma; UO-31 renal; NCI-H460 lung; SK-OV-3 ovarian; PC-3 prostate; OVCAR-4 ovarian; 786-0 renal; CAKI-1 renal; MDA-MB-435; HOP-92 NSCLC; HCT-116 colon; MOLT-4 leukemia.
What all share (assay): NCI-60 cell line screen, 48 h

For the compound `NC(CCC(=O)OCc1ccccc1)C(=O)NC(CCC(=O)OCc1ccccc1)C(=O)O` (stereo not given) (H-Glu(OBn)-Glu(OBn)-OH; configuration not given here), the TGI in the assay on SNB-19 CNS, with UACC-62 melanoma, with HCT-15 colon, in the assay with BT-549 breast, in the assay on NCI/ADR-RES ovarian and in the assay with SF-268 CNS was more than 100 µM in each case. For the same compound, the TGI with HT29 colon, in the assay with SK-MEL-28 melanoma, in the assay with LOX IMVI melanoma, in the assay on UO-31 renal, in the assay on NCI-H460 lung and in the assay on SK-OV-3 ovarian was more than 100 µM in each case. Besides, the TGI in the assay on PC-3 prostate, in the assay with OVCAR-4 ovarian, with 786-0 renal, in the assay with CAKI-1 renal, with MDA-MB-435 and with HOP-92 NSCLC was more than 100 µM in each case. The TGI with HCT-116 colon and in the assay with MOLT-4 leukemia was more than 100 µM throughout.

With `CC(C)=CCC[C@@H](C)C1=C(Nc2ccccc2)C(O)=C(C)C(=O)C1=O`, the TGI came out at 22.8 µM in the assay on SNB-19 CNS; 20.7 µM in the assay on UACC-62 melanoma; 13.4 µM with HCT-15 colon; 23.1 µM in the assay on BT-549 breast; 3.96 µM in the assay with NCI/ADR-RES ovarian; 25.2 µM with SF-268 CNS. The TGI is 15.3 µM in the assay with HT29 colon; 30.9 µM with SK-MEL-28 melanoma; 97.1 µM with LOX IMVI melanoma; 15.5 µM with UO-31 renal; more than 40 µM in the assay with NCI-H460 lung; more than 36.4 µM in the assay on SK-OV-3 ovarian. The TGI in the assay with PC-3 prostate is more than 40.5 µM; in the assay on OVCAR-4 ovarian, more than 43.5 µM; in the assay on 786-0 renal it was more than 48.5 µM; in the assay with CAKI-1 renal, 11.8 µM; with MDA-MB-435 it was more than 48.3 µM; in the assay with HOP-92 NSCLC, 9.9 µM. The TGI is 16.9 µM in the assay on HCT-116 colon and more than 22.7 µM in the assay with MOLT-4 leukemia.

Turning to `N#CC(C#N)=C1CCCCc2ccc([N+](=O)[O-])cc21`, the TGI in the assay with SNB-19 CNS, in the assay with UACC-62 melanoma, with HCT-15 colon, in the assay on BT-549 breast, in the assay with NCI/ADR-RES ovarian and with SF-268 CNS was more than 100 µM throughout. Besides, the TGI in the assay with HT29 colon, with SK-MEL-28 melanoma, in the assay on LOX IMVI melanoma, in the assay on UO-31 renal, in the assay with NCI-H460 lung and in the assay with SK-OV-3 ovarian was more than 100 µM each time. In addition, the TGI with PC-3 prostate is more than 100 µM; in the assay with OVCAR-4 ovarian it was more than 100 µM; in the assay with 786-0 renal, 33 µM; in the assay on CAKI-1 renal it was more than 100 µM; in the assay on MDA-MB-435, more than 100 µM; in the assay with HOP-92 NSCLC, more than 100 µM. Also, the TGI was 54.8 µM in the assay with HCT-116 colon and more than 100 µM in the assay with MOLT-4 leukemia.

`C#C[C@]1(O)CC[C@H]2[C@@H]3CCC4=C/C(=N\OCCN5CCCC5)CC[C@]4(C)[C@H]3CC[C@@]21C`: the TGI in the assay on SNB-19 CNS amounted to 32.2 µM; in the assay with UACC-62 melanoma, 27.5 µM; in the assay on HCT-15 colon, 35 µM; with BT-549 breast, 43.6 µM; in the assay with NCI/ADR-RES ovarian, 31.5 µM; with SF-268 CNS it was 30.1 µM. The TGI with HT29 colon worked out at 29.7 µM; in the assay with SK-MEL-28 melanoma it was 44.6 µM; in the assay on LOX IMVI melanoma, 33 µM; in the assay with UO-31 renal it was 32.9 µM; in the assay with NCI-H460 lung, 40.6 µM; in the assay with SK-OV-3 ovarian, 54.6 µM. Moreover, the TGI in the assay with PC-3 prostate was 32.6 µM; in the assay on OVCAR-4 ovarian, more than 62.1 µM; in the assay on 786-0 renal, 24.4 µM; in the assay on CAKI-1 renal, 39.1 µM; with MDA-MB-435 it was 15 µM; with HOP-92 NSCLC, more than 100 µM. The values for the TGI in the assay with HCT-116 colon and with MOLT-4 leukemia were 28.7 µM and 17.9 µM, respectively.

For the compound `O=c1c2c3c(sc2nc2n1N=CN(c1ccc(Cl)cc1)C2)CCCC3`, the TGI with SNB-19 CNS, in the assay on UACC-62 melanoma, in the assay with HCT-15 colon, in the assay on BT-549 breast, in the assay with NCI/ADR-RES ovarian and with SF-268 CNS was more than 100 µM each time. Further, the TGI with HT29 colon, in the assay with SK-MEL-28 melanoma, in the assay on LOX IMVI melanoma, in the assay on UO-31 renal, in the assay on NCI-H460 lung and in the assay with SK-OV-3 ovarian was more than 100 µM throughout. Besides, the TGI in the assay on PC-3 prostate, with OVCAR-4 ovarian, in the assay with 786-0 renal, in the assay on CAKI-1 renal, in the assay with MDA-MB-435 and with HOP-92 NSCLC was more than 100 µM each time. The TGI in the assay on HCT-116 colon and in the assay on MOLT-4 leukemia was more than 100 µM throughout.

For `CCOC(=O)c1c(-c2ccccc2)[nH]c2ccc(Cl)cc2c1=O`, the TGI with SNB-19 CNS, in the assay on UACC-62 melanoma, in the assay on HCT-15 colon, with BT-549 breast, in the assay on NCI/ADR-RES ovarian and in the assay on SF-268 CNS was more than 100 µM in each case. For the same compound, the TGI in the assay on HT29 colon is more than 100 µM; in the assay on SK-MEL-28 melanoma it was more than 100 µM; with LOX IMVI melanoma, more than 100 µM; in the assay on UO-31 renal, 70.8 µM; in the assay with NCI-H460 lung, more than 100 µM; in the assay with SK-OV-3 ovarian, more than 100 µM. The TGI in the assay on PC-3 prostate was more than 100 µM; in the assay with OVCAR-4 ovarian it was 44.8 µM; in the assay on 786-0 renal, more than 100 µM; in the assay on CAKI-1 renal, more than 100 µM; in the assay on MDA-MB-435 it was more than 100 µM; in the assay with HOP-92 NSCLC, 73.6 µM. For the same compound, the TGI in the assay with HCT-116 colon and with MOLT-4 leukemia was more than 100 µM in each case.

In the case of `CC(C)C(Cl)CC/C(CBr)=C(\Cl)CCl` (stereo not given), the TGI is 28.3 µM in the assay on SNB-19 CNS; 6.16 µM in the assay with UACC-62 melanoma; 10.4 µM in the assay on HCT-15 colon; 3.99 µM with BT-549 breast; more than 79.1 µM with NCI/ADR-RES ovarian; 32.1 µM in the assay on SF-268 CNS. Moreover, the TGI is 11.7 µM in the assay with HT29 colon; 12 µM in the assay with SK-MEL-28 melanoma; 1.2 µM in the assay on LOX IMVI melanoma; 30.8 µM in the assay on UO-31 renal; 29.3 µM in the assay with NCI-H460 lung; 17.8 µM with SK-OV-3 ovarian. Also, the TGI with PC-3 prostate came to 23.9 µM; in the assay with OVCAR-4 ovarian, 7.34 µM; with 786-0 renal it was 5.04 µM; in the assay on CAKI-1 renal it was 17.9 µM; in the assay on MDA-MB-435 it was 10 µM; in the assay on HOP-92 NSCLC, 7.73 µM. Moreover, the values for the TGI with HCT-116 colon and in the assay on MOLT-4 leukemia were 8.35 µM and more than 20.3 µM, respectively.
